Results on 17 compounds are retold here after patent US12559494B2, “Functionalized lactams as modulators of the 5-hydroxytryptamine receptor 7 and their method of use” (Temple University - Of The Commonwealth System of Higher …, priority 2018, dated 2026).

For assay [1], the target named is T1, 5HT7 receptors (Homo sapiens, UniProt P34969). The experiment in a line: Radiolabeled binding (IC50 and Ki), [3H]LSD competition on membranes of cells expressing recombinant 5HT7 receptors. Further details: expressed in transfected cells. As to the method: Radiolabel Binding Studies for Serotonin 5HT7 Receptors, Method 1:
A solution of the compound of the disclosure to be tested is prepared as a 1-mg/ml stock in Assay Buffer or DMSO according to its solubility. A similar stock of the reference compound chlorpromazine is also prepared as a positive control. Eleven dilutions (5×assay concentration) of the compound of the disclosure and chlorpromazine are prepared in the Assay Buffer by serial dilution to yield final corresponding assay concentrations ranging from 10 pM to 10 μM.
A stock concentration of 5 nM [^3H]LSD (lysergic acid diethyl amide) is prepared in 50 mM Tris-HCl, 10 mM MgCl2, 1 mM EDTA, pH 7.4 (Assay Buffer). Aliquots (50 μl) of radioligand are dispensed into the wells of a 96-well plate containing 100 μl of Assay Buffer. Duplicate 50-μl aliquots of the compound of the disclosure test and chlorpromazine positive control reference compound serial dilutions are added.
Membrane fractions of cells expressing recombinant 5HT7 receptors (50 μL) are dispensed into each well. The membranes are prepared from stably transfected cell lines expressing 5HT7 receptors cultured on 10-cm plates by harvesting PBS-rinsed monolayers, resuspending and lysing in chilled, hypotonic 50 mM Tris-HCl, pH 7.4, centrifuging at 20,000×g, decanting the supernatant and storing at −80° C.; the membrane preparations are resuspended in 3 ml of chilled Assay Buffer and homogenized by several passages through a 26 gauge needle before using in the assay.
The 250-μl reactions are incubated at room temperature for 1.5 hours, then harvested by rapid filtration onto 0.3% polyethyleneimine-treated, 96-well filter mats using a 96-well Filtermate harvester. Four rapid 500-μl washes are performed with chilled Assay Buffer to reduce non-specific binding. The filter mats are dried, then scintillant is added to the filters and the radioactivity retained on the filters is counted in a Microbeta scintillation counter.
Raw data (dpm) representing total radioligand binding (i.e., specific+non-specific binding) are plotted as a function of the logarithm of the molar concentration of the competitor (i.e., test or reference compound). Non-linear regression of the normalized (i.e., percent radioligand binding compared to that observed in the absence of test or reference compound) raw data is performed in Prism 4.0 (GraphPad Software) using the built-in three parameter logistic model describing ligand competition binding to radioligand-labeled sites: y=bottom+[(top-bottom)/(1+10×−logIC50)] where bottom equals the residual radioligand binding measured in the presence of 10 μM reference compound (i.e., non-specific binding) and top equals the total radioligand binding observed in the absence of competitor. The log IC50 (i.e., the log of the ligand concentration that reduces radioligand binding by 50%) is thus estimated from the data and used to obtain the Ki by applying the Cheng-Prusoff approximation: Ki=IC50/(1+[ligand]/KD) • where [ligand] equals the assay radioligand concentration and KD equals the affinity constant of the radioligand for the target receptor.
^1Radiolabeled Binding (IC50 and K1)
A solution of the compound of the disclosure to be tested was prepared as a 1-mg/ml stock in Assay Buffer or DMSO according to its solubility. A similar stock of the reference compound chlorpromazine was also prepared as a positive control. Eleven dilutions (5× assay concentration) of the compound of the disclosure and chlorpromazine were prepared in the Assay Buffer by serial dilution to yield final corresponding assay concentrations ranging from […].
A stock concentration of 5 nM [^3H]LSD (lysergic acid diethyl amide) was prepared in 50 mM Tris-HCl, 10 mM MgCl2, 1 mM EDTA, pH 7.4 (Assay Buffer). Aliquots (50 μl) of radioligand were dispensed into the wells of a 96-well plate containing 100 μl of Assay Buffer. […]

Assay [2] has as its target T1, 5HT7 receptors. The experiment in a line: Functional data (Kb), HitHunter cAMP enzyme fragment complementation assay with 5-HT as agonist. In kind it is cell-based. Also noted: expressed in transfected cells; G418 selection). The protocol: Functional efficacy of the compounds of the disclosure on 5-HT7 serotonin receptors were measured in a cell based cAMP enzyme fragment complementation assay using the HitHunter cAMP assay (DiscoveRx). Cells stably expressing human 5HT7 receptors were plated in 96-well plates at 4000 cells/well, 16-20 hours prior to assay in growth media (Ultraculture medium, 2 mM GlutaMax and G418 1 mg/mL. Serial dilutions of the agonist, 5-hydroxytryptamine (5-HT), were prepared in a final concentration range of 10 μM to 10 nM. Compounds of the disclosure were prepared in 3-fold serial dilutions to obtain a final concentration range of 10 μM to 0.1 nM. Compounds of the disclosure are tested for agonist activity in the absence of 5-HT and antagonist activity in the presence of 5-HT. For the cAMP assay, the protocol was followed according to the instructions provided by the supplier. Briefly, cells were incubated with a compound of the disclosure for 30 minutes at 37° C. prior to addition of EC70 concentration of 5-HT. After an additional 30 minutes, cAMP antibody/cell lysis solution was added (20 μL/well) and incubated for 60 minutes at room temperature. cAMP XS+EA reagent is added (20 μL/well) and incubated for 2 hours at room temperature. Luminescence was read on the Envision Multilabel plate reader.

Where [3] appears, read: [3H]LSD radioligand, membranes of cells expressing recombinant 5HT7 receptors, read-out: IC50 (nM)^1.
[4] abbreviates: cAMP assay, cells stably expressing human 5HT7 receptors, antagonist activity in the presence of EC70 5-HT, read-out: Kb (nM)^2.
Setting [5] is: Table 37, scaffold drawing 617, antagonist mode vs 5-HT, read-out: Kb.
[6] abbreviates: Table 35, scaffold drawing 615, read-out: IC50.
Where [7] appears, read: Table 35, scaffold drawing 615, antagonist mode vs 5-HT, read-out: Kb.

Each structure is given as a SMILES string. Structures can show the parent of a compound that is named as a salt. Where two headings read alike, the source gives them in different places.

T1 sequence (P34969 whole entry): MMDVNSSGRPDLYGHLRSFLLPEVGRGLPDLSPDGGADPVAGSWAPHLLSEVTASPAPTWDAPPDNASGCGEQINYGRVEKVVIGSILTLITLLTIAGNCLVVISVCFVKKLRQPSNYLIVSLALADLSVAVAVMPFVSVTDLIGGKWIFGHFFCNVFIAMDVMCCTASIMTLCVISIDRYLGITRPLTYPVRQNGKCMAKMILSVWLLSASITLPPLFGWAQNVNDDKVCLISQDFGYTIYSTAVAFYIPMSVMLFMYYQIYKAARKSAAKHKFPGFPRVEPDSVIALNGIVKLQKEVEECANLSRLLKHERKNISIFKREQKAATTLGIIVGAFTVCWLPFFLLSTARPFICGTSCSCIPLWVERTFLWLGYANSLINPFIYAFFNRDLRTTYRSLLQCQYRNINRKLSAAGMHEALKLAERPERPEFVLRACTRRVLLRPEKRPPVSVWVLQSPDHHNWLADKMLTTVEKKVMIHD

Take `CCC1(CC)CC(CCN2CCN(c3ccc(C)cc3)CC2)NC1=O` (stereo not shown) [3,3-diethyl-5-(2-(4-(p-tolyl)piperazin-1-yl)ethyl)pyrrolidin-2-one]: the IC50 at 5HT7 receptors [1] (setting [3]) came to 28 nM. At 5HT7 receptors [2] (setting [4]), the Kb amounted to 24.1 nM.
Turning to `CS(=O)(=O)N1CCC2(CC1)C[C@H](CCN1CCN(c3ccc(F)cc3)CC1)NC2=O` [drawing 617 n=2 R3=4-F-Phenyl R7=MeSO2, (R)-3-(2-(4-(4-fluorophenyl)piperazin-1-yl)ethyl)-8-(methylsulfonyl)-2,8-diazaspiro[4.5]decan-1-one], the Ki at 5HT7 receptors [1] (Table 37, scaffold drawing 617) stood at 89 nM. Also, on 5HT7 receptors [2] (setting [5]), the Kb turned out to be 30.7 nM.
As to `CCC1(CC)C[C@H](CCN2CCN(c3ccc(F)c(Cl)c3)CC2)NC1=O` [(R)-5-(2-(4-(3-chloro-4-fluorophenyl)piperazin-1-yl)ethyl)-3,3-diethylpyrrolidin-2-one], the IC50 on 5HT7 receptors [1] (setting [6]) was 8.7 nM. For the same compound, the Kb on 5HT7 receptors [2] (setting [7]) came to 1.92 nM.
The like results for `CCC1(CC)C[C@H](CCN2CCN(c3ccc(F)cc3)CC2)NC1=O` [(R)-3,3-diethyl-5-(2-(4-(4-fluorophenyl)piperazin-1-yl)ethyl)pyrrolidin-2-one] were, in that order, 12.3 nM and 0.81 nM.
On to `CCC1(CC)CC(CCN2CCN(c3ccccc3N3CCOCC3)CC2)NC1=O` (stereo not shown) [3,3-diethyl-5-(2-(4-(2-morpholinophenyl)piperazin-1-yl)ethyl)pyrrolidin-2-one], for which the IC50 on 5HT7 receptors [1] (setting [3]) worked out at 24 nM. Besides, at 5HT7 receptors [2] (setting [4]), the Kb is 32.3 nM.
For the compound `CCC1(CC)CC(CCN2CCN(c3ccc(O)cc3)CC2)NC1=O` (stereo not shown) [3,3-diethyl-5-(2-(4-(4-hydroxyphenyl)piperazin-1-yl)ethyl)pyrrolidin-2-one], the IC50 at 5HT7 receptors [1] (setting [3]) worked out at 34 nM. Further, the Kb on 5HT7 receptors [2] (setting [4]) was 50 nM.
In the case of `CS(=O)(=O)N1CCC2(CC1)C[C@H](CCN1CCN(c3cccc(Cl)c3)CC1)NC2=O` [drawing 617 n=2 R3=3-Cl-Phenyl R7=MeSO2, (R)-3-(2-(4-(3-chlorophenyl)piperazin-1-yl)ethyl)-8-(methylsulfonyl)-2,8-diazaspiro[4.5]decan-1-one], the Ki at 5HT7 receptors [1] (Table 37, scaffold drawing 617) was found to be 107 nM. In addition, the Kb on 5HT7 receptors [2] (setting [5]) was 13.5 nM.
As for `CCC1(CC)CC(CCN2CCN(c3ccc(C)cc3N3CCOCC3)CC2)NC1=O` (stereo not shown) [3,3-diethyl-5-(2-(4-(4-methyl-2-morpholinophenyl)piperazin-1-yl)ethyl)pyrrolidin-2-one], the half-inhibitory concentration (IC50) on 5HT7 receptors [1] (setting [3]) was 74 nM. On 5HT7 receptors [2] (setting [4]), the Kb was found to be 59.3 nM.
With `CCC1(CC)C[C@@H](CCN2CCN(c3ccc(C)cc3)CC2)NC1=O` [(S)-3,3-diethyl-5-(2-(4-(p-tolyl)piperazin-1-yl)ethyl)pyrrolidin-2-one], the Ki on 5HT7 receptors [1] (Table 36, scaffold drawing 616) amounted to 79 nM. Further, the Kb at 5HT7 receptors [2] (Table 36, scaffold drawing 616, antagonist mode vs 5-HT, read-out: Kb) is 58.1 nM.
For `CC(=O)N1CCC2(CC1)C[C@H](CCN1CCN(c3cccc(Cl)c3)CC1)NC2=O` [drawing 617 n=2 R3=3-Cl-Phenyl R7=Acetyl, (R)-8-acetyl-3-(2-(4-(3-chlorophenyl)piperazin-1-yl)ethyl)-2,8-diazaspiro[4.5]decan-1-one], the Ki on 5HT7 receptors [1] (Table 37, scaffold drawing 617) turned out to be 63 nM. Besides, the Kb at 5HT7 receptors [2] (setting [5]) turned out to be 5.04 nM.
For the compound `CCC1(CC)C[C@H](CCN2CCN(c3ccc(C)cc3)CC2)NC1=O` [(R)-3,3-diethyl-5-(2-(4-(p-tolyl)piperazin-1-yl)ethyl)pyrrolidin-2-one], on 5HT7 receptors [1] (Table 35, scaffold drawing 615), the inhibitory constant (Ki) was 11 nM. Also, on 5HT7 receptors [2] (setting [7]), the Kb came out at 8.43 nM.
Take `CC(=O)N1CCC2(CC1)C[C@H](CCN1CCN(c3ccc(F)cc3)CC1)NC2=O` [drawing 617 n=2 R3=4-F-Phenyl R7=Acetyl, (R)-8-acetyl-3-(2-(4-(4-fluorophenyl)piperazin-1-yl)ethyl)-2,8-diazaspiro[4.5]decan-1-one]: on 5HT7 receptors [1] (Table 37, scaffold drawing 617), the Ki worked out at 76 nM. The Kb at 5HT7 receptors [2] (setting [5]) amounted to 14.4 nM.
As for `CCC1(CC)CC(CCN2CCN(c3ccccc3)CC2)NC1=O` (stereo not shown) [3,3-diethyl-5-(2-(4-phenylpiperazin-1-yl)ethyl)pyrrolidin-2-one], the IC50 on 5HT7 receptors [1] (setting [3]) was found to be 68 nM. In addition, the Kb on 5HT7 receptors [2] (setting [4]) was 17.8 nM.
In the case of `CCC1(CC)C[C@H](CN2CCN(c3ccc(C)cc3N3CCOCC3)CC2)NC1=O` [(R)-3,3-diethyl-5-((4-(4-methyl-2-morpholinophenyl)piperazin-1-yl)methyl)pyrrolidin-2-one formate], on 5HT7 receptors [1] (Table 35, scaffold drawing 615), the Ki turned out to be 132 nM. At 5HT7 receptors [2] (setting [7]), the Kb was 43.8 nM.
For `CCC1(CC)C[C@H](CCN2CCN(c3ccc(Cl)c(Cl)c3)CC2)NC1=O` [(R)-5-(2-(4-(3,4-dichlorophenyl)piperazin-1-yl)ethyl)-3,3-diethylpyrrolidin-2-one], the IC50 at 5HT7 receptors [1] (setting [6]) was 82.8 nM. In addition, the Kb at 5HT7 receptors [2] (setting [7]) was determined as 6.19 nM.
With `CCC1(CC)CC(CCN2CCN(c3ccc(F)cc3)CC2)NC1=O` (stereo not shown) [3,3-diethyl-5-(2-(4-(4-fluorophenyl)piperazin-1-yl)ethyl)pyrrolidin-2-one], the IC50 at 5HT7 receptors [1] (setting [3]) amounted to 8.5 nM. Moreover, the Kb at 5HT7 receptors [2] (setting [4]) came out at 8.98 nM.
The like results for `CCC1(CC)CC(CCN2CCN(c3ccc(Cl)cc3)CC2)NC1=O` (stereo not shown) [5-(2-(4-(4-chlorophenyl)piperazin-1-yl)ethyl)-3,3-diethylpyrrolidin-2-one] were, in that order, 13 nM and 54.6 nM.
